Measurements as given in patent publication US20220241249A1, “PHARMACEUTICAL COMPOSITION AND KIT CONTAINING NOVEL PENAM DERIVATIVE OR SALT THEREOF AND ONE OR MORE COMPOUNDS SELECTED FROM beta-LACTAMASE INHIBITORY COMPOUND AND ANTIBACTERIAL COMPOUND OR SALTS THEREOF” (priority 2019, published 2022).
≈ marks a conversion by molar mass, not a printed value. Where two headings read alike, the source gives them in different places.

What was measured:
[1] = system: AmpC-derepressed Pseudomonas aeruginosa mutant strain (S-3028); test: Antibacterial activity evaluation test, MIC by broth microdilution (CLSI); type: cell-based; details: for MIC: Pseudomonas aeruginosa
Summary of the method: (§1)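 Colonies grown overnight on Mueller Hinton agar, suspended to 0.5 McFarland and diluted 10-fold as inoculum. Incubation in cation-adjusted Mueller Hinton broth with test compound at 35° C for 16–20 h. MIC (μg/mL) is the lowest concentration with no visible growth.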

[2] = system: CTX-M-15-containing Escherichia coli strain (TK-1747); test: as above; type: cell-based; details: for MIC: Escherichia coli
Summary of the method: as §1

[3] = system: GES-19 and GES-20-containing Pseudomonas aeruginosa strain (S-3759); test: as above; type: cell-based; details: for MIC: Pseudomonas aeruginosa
Summary of the method: as §1

[4] = system: IMP-1-containing Pseudomonas aeruginosa strain (S-2838); test: as above; type: cell-based; details: for MIC: Pseudomonas aeruginosa
Summary of the method: as §1

[5] = system: KPC-2-containing Klebsiella pneumoniae strain (Y-995); test: as above; type: cell-based; details: for MIC: Klebsiella pneumoniae
Summary of the method: as §1

[6] = system: NDM-1-containing Klebsiella pneumoniae strain (Y-1007); test: as above; type: cell-based; details: for MIC: Klebsiella pneumoniae
Summary of the method: as §1

[7] = system: OXA-48-containing Klebsiella pneumoniae strain (Y-1062); test: as above; type: cell-based; details: for MIC: Klebsiella pneumoniae
Summary of the method: as §1

[8] = system: Pseudomonas aeruginosa strain ATCC27853; test: as above; type: cell-based; details: Pseudomonas aeruginosa, ATCC27853
Summary of the method: as §1

[9] = system: VIM-2-containing Pseudomonas aeruginosa strain (S-3779); test: as above; type: cell-based; details: for MIC: Pseudomonas aeruginosa
Summary of the method: as §1

[10] = system: multidrug-resistant Pseudomonas aeruginosa strain (S-2838 strain); test: Test for protection against systemic infection in mouse with multidrug-resistant Pseudomonas aeruginosa; type: in vivo; details: sc, 72 h, read-out: survival rate 3 days after the inoculation with bacteria
Protocol: As mice, ICR male SPF mice (4 weeks old: 10 mice per group) were used. Clinically isolated multidrug-resistant Pseudomonas aeruginosa strain (S-2838 strain) cultured overnight on a Mueller-Hinton agar plate at 37° C. was cultured on a cation-adjusted Mueller Hinton medium for 5 hours, and then diluted 20-fold with a 10% mucin/phosphate buffer, thereby preparing an inoculum. An infection was induced by intraperitoneally inoculating the mice with the inoculum at 0.5 mL (about 10^6 CFU/mouse). Each test compound was dissolved in physiological saline, and 1 hour after the infection, the compound was subcutaneously administered once to the mice at 40 mg/kg. The control group was administered with the same amount of physiological saline used as a vehicle. The number of surviving mice was recorded 3 days after the infection.
A test for protection against systemic infection in a mouse with multidrug-resistant Pseudomonas aeruginosa was performed in the same manner as in Test Example 2.

[11] = system: Klebsiella pneumoniae Y-1020 strain producing KPC-3 and SHV-12 (strain B); test: MIC of test compound alone or with β-lactamase inhibitor at 4 μg/mL; type: cell-based; details: Klebsiella pneumoniae, Strain B, read-out: MIC
Protocol: (§2) By using a broth microdilution method, the combinational effect of a test compound and a β-lactamase inhibitor was evaluated.
(§3) The evaluation test for antibacterial activity was performed in the same manner as in Test Example 1.

[12] = system: Klebsiella pneumoniae Y-1133 strain producing NDM-1, OXA-48, and CTX-M-15 (strain C); test: as above; type: cell-based; details: Klebsiella pneumoniae, with ZID at 4 μg/mL
Protocol: as §2, §3
Klebsiella pneumoniae Y-1133 strain producing NDM-1, OXA-48, and CTX-M-15 (hereinafter, called strain C),
(§4) An antibacterial activity evaluation test was performed in the same manner as in Test Example 6.
(§5) As the bacterial strain, the strains B, C, and D producing β-lactamase and a Klebsiella pneumoniae Y-1069 strain (hereinafter, called strain F) producing OXA-48 and CTX-M-15 were used.

[13] = system: Escherichia coli TK-3113 strain producing IMP-8 (strain D); test: as above; type: cell-based; details: Escherichia coli
Protocol: as §2, §3
Escherichia coli TK-3113 strain producing IMP-8 (hereinafter, called strain D),
as §4, §5

[14] = system: Klebsiella pneumoniae Y-1069 strain producing OXA-48 and CTX-M-15 (strain F); test: as above; type: cell-based; details: for MIC: Klebsiella pneumoniae, Strain F
Protocol: as §3, §4, §5

[15] = test compound alone (β-lactamase inhibitor N/A)

COCC(NC(=O)C(=O)c1ccc(O)c(O)c1Cl)C(=O)NN1CCN([C@]2(C(=O)O)CN3C(=O)C(NC(=O)/C(=N\OC(C)(C)C(=O)O)c4csc(N)n4)[C@H]3S2)C1=O (stereo partly drawn) [Example 139, (3R,5R,6R)-6-((Z)-2-(2-aminothiazol-4-yl)-2-(((2-carboxypropan-2-yl)oxy)imino)aceta-mido)-3-(3-((R)-2-(2-(2-chloro-3,4-dihy-droxyphenyl)-2-oxo-acetamido)-3-methoxy-propanamido)-2-oxo-imidazolidin-1-yl)-7-oxo-4-thia-1-azabicyclo-[3.2.0]heptane-3-car-boxylic acid]
MIC [1]: 0.5 µg/mL (≈ 0.594 µM) | MIC [2]: 2 µg/mL (≈ 2.37 µM) | MIC [3]: 2 µg/mL (≈ 2.37 µM) | MIC [4]: 0.5 µg/mL (≈ 0.594 µM) | MIC [5]: 1 µg/mL (≈ 1.19 µM) | MIC [6]: 0.12 µg/mL (≈ 0.142 µM) | MIC [7]: 4 µg/mL (≈ 4.75 µM) | MIC [8]: 1 µg/mL (≈ 1.19 µM) | MIC [9]: 1 µg/mL (≈ 1.19 µM) | responders at 40 mg/kg [10]: ≥ 90%

CC(C)(O/N=C(\C(=O)N[C@@H]1C(=O)N2C[C@@](C(=O)O)(N3CCN(NC(=O)C(=O)c4ccc(O)c(O)c4Cl)C3=O)S[C@H]12)c1nsc(N)n1)C(=O)O [Example 23, (3R,5R,6R)-6-((Z)-2-(5-amino-1,2,4-thiadiazol-3-yl)-2-(((2-carboxypropan-2-yl)oxy)imino)acetamido)-3-(3-(2-(2-chloro-3,4-dihydroxyphenyl)-2-oxoacetamido)-2-oxoimidazolidin-1-yl)-7-oxo-4-thia-1-azabicyclo[3.2.0]heptane-3-carboxylic acid]
MIC [1]: 0.5 µg/mL (≈ 0.674 µM) | MIC [2]: 0.25 µg/mL (≈ 0.337 µM) | MIC [3]: 1 µg/mL (≈ 1.35 µM) | MIC [4]: 1 µg/mL (≈ 1.35 µM) | MIC [5]: 0.25 µg/mL (≈ 0.337 µM) | MIC [6]: < 0.06 µg/mL | MIC [7]: 0.5 µg/mL (≈ 0.674 µM) | MIC [8]: 0.25 µg/mL (≈ 0.337 µM) | MIC [9]: 0.25 µg/mL (≈ 0.337 µM) | responders at 40 mg/kg [10]: ≥ 90%

C=C(O/N=C(\C(=O)NC1C(=O)N2C[C@@](C(=O)O)(N3CCN(NC(=O)C(=O)c4ccc(O)c(O)c4Cl)C3=O)S[C@H]12)c1csc(N)n1)C(=O)O (stereo partly drawn) [Example 144, (3R,5R,6R)-6-((Z)-2-(2-aminothiazol-4-yl)-2-(((1-carboxyvinyl)-oxy)imino)acetamido)-3-(3-(2-(2-chloro-3,4-dihydroxyphenyl)-2-oxoacetamido)-2-oxo-imidazolidin-1-yl)-7-oxo-4-thia-1-azabicyclo-[3.2.0]heptane-3-car-boxylic acid]
Antibacterial activity (MIC) Pseudomonas aeruginosa S-3028 ([1]; Pseudomonas aeruginosa S-3028): < 0.12 µg/mL | Antibacterial activity (MIC) Escherichia coli TK-1747 ([2]; Escherichia coli TK-1747): < 0.12 µg/mL | Antibacterial activity (MIC) Pseudomonas aeruginosa S-3759 ([3]; Pseudomonas aeruginosa S-3759): 1 µg/mL | Antibacterial activity (MIC) Pseudomonas aeruginosa S-2838 ([4]; Pseudomonas aeruginosa S-2838): 32 µg/mL | Antibacterial activity (MIC) Klebsiella pneumoniae Y-995 ([5]; Klebsiella pneumoniae Y-995): < 0.12 µg/mL | Antibacterial activity (MIC) Klebsiella pneumoniae Y-1007 ([6]; Klebsiella pneumoniae Y-1007): < 0.12 µg/mL | Antibacterial activity (MIC) Klebsiella pneumoniae Y-1062 ([7]; Klebsiella pneumoniae Y-1062): 0.5 µg/mL | Antibacterial activity (MIC) Pseudomonas aeruginosa ATCC 27853 [8]: 0.25 µg/mL | Antibacterial activity (MIC) Pseudomonas aeruginosa S-3779 ([9]; Pseudomonas aeruginosa S-3779): 0.25 µg/mL | MIC [11, 15]: 1 µg/mL | MIC ([11]; with AVI at 4 μg/mL): 0.25 µg/mL | MIC ([11]; with CVA at 4 μg/mL): 0.25 µg/mL | MIC ([11]; with NAC at 4 μg/mL): < 0.015 µg/mL | MIC ([11]; with ZID at 4 μg/mL): 0.03 µg/mL | MIC [12]: < 0.015 µg/mL | MIC [13, 15]: 0.5 µg/mL | MIC ([13]; with AVI at 4 μg/mL): 0.25 µg/mL | MIC ([13]; with CVA at 4 μg/mL): 0.25 µg/mL | MIC ([13]; with NAC at 4 μg/mL): < 0.015 µg/mL | MIC ([13]; with SBT at 4 μg/mL): 0.25 µg/mL | MIC ([13]; with TAZ at 4 μg/mL): 0.125 µg/mL | MIC ([13]; with ZID at 4 μg/mL): < 0.015 µg/mL | MIC [14, 15]: 4 µg/mL | MIC ([14]; with AVI at 4 μg/mL): 0.25 µg/mL | MIC ([14]; with CVA at 4 μg/mL): 2 µg/mL | MIC ([14]; with NAC at 4 μg/mL): 0.06 µg/mL | MIC ([14]; with SBT at 4 μg/mL): 2 µg/mL | MIC ([14]; with TAZ at 4 μg/mL): 2 µg/mL | MIC ([14]; with ZID at 4 μg/mL): 0.03 µg/mL | antibacterial activity in combination with a β-lactamase inhibitor versus without ([14]; for all the bacterial strains (strains B, C, D and F), summary of Tables 51 and 52): higher antibacterial activity

CC(C)(O/N=C(\C(=O)NC1C(=O)N2C[C@@](C(=O)O)(N3CCN(NC(=O)CCNC(=O)/C(=N\O)c4ccc(O)c(O)c4Cl)C3=O)S[C@H]12)c1csc(N)n1)C(=O)O (stereo partly drawn) [Example 122]
MIC [1]: 2 µg/mL (≈ 2.42 µM) | MIC [2]: 0.5 µg/mL (≈ 0.604 µM) | MIC [3]: 2 µg/mL (≈ 2.42 µM) | MIC [4]: 2 µg/mL (≈ 2.42 µM) | MIC [5]: 0.5 µg/mL (≈ 0.604 µM) | MIC [6]: < 0.06 µg/mL | MIC [7]: 1 µg/mL (≈ 1.21 µM) | MIC [8]: 1 µg/mL (≈ 1.21 µM) | MIC [9]: 2 µg/mL (≈ 2.42 µM) | responders at 40 mg/kg [10]: ≥ 90%
